Our source for the Wet weight gain values is patent WO2016169030A1, “Fumarate and crystals of pyridylamine compound” (priority 2015, dated 2016).

The nature of the data set: Humidity (wettability/hygroscopicity) test, Chinese Pharmacopoeia 2010. Format: physicochemical. Conditions: Guidelines for Drug Wetting Test, Chinese Pharmacopoeia 2010 Edition 2 Appendix XIX J; Table 2.
With `CC(=O)Nc1ncc(-c2cnn(C3CCNCC3)c2)cc1O[C@H](C)c1c(Cl)ccc(F)c1Cl` [Compound of formula (II), N-Acetyl-3-[(1R)-1-(2,6-dichloro-3-fluorophenyl)ethoxy]-5-[1-(4-piperidinyl)-1H-pyrazol-4-yl]-2-pyridinamine], the Wet weight gain came out at 61.75%.
Next, `CC(=O)Nc1ncc(-c2cnn(C3CCNCC3)c2)cc1O[C@H](C)c1c(Cl)ccc(F)c1Cl.O=C(O)/C=C/C(=O)O` [Fumarate]: 0.80%.
For `O=C(O)CC(O)C(=O)O` (stereo not drawn) [Malate] the value was 7.83%.
